Legend:
A9 cells = test: Ultrasound mediated transfection of GFP chromosomes with Saint-2; assay type: cell-based, murine; conditions: of the cells remaining on the glass
Protocol: A9 cells were grown at 37° C., 5% CO2, in DMEM with 4500 mg/l Glucose, with Pyridoxine/HCL, 10% Fetal Calf Serum, 10000 μg/ml Streptomycin and 10000 μg/ml Penicillin (GIBCO BRL, Paisley, UK). Between 2×10^5 and 5×10^5 cells were plated onto sterile glass slides in a 12 well plate 24 h before usage.
Cells were transfected with GFP chromosomes using the procedure of Example 6A except that CHO-KI medium was replaced with A9 medium.

Hep-G2 cells = test: as above; assay type: cell-based, human; conditions: of the cells remaining on the slide
Protocol: Hep-G2 cells were grown at 37° C., 5% CO2, in DMEM with 4500 mg/l Glucose, with Pyridoxine/HCL, 10% Fetal Calf Serum, 10000 μg/ml Streptomycin and 1000 μg/ml Penicillin. Between 2×10^5 and 5×10^5 cells were plated onto sterile glass slides in a 12 wells plate 24 hours before usage.
Cells were transfected with GFP chromosomes using the procedure of Example 6A except that the CHO—KI medium was replaced with Hep-G2 medium.

CHO-KI cells = test: as above; assay type: cell-based
Protocol: CHO-KI cells were grown at 37°, 5% CO2, in CHO-S-SFM 2 Medium, (Gibco BRL, Paisley, UK). Between 2×10^5 and 5×10^5 cells were plated onto sterile glass slides in a 12 well plate 24 h before usage.
Transfection of the cells was performed as follows. The medium was removed from the cells, and the cells were washed twice with HBSS (Hanks balanced salt solution without Phenol Red (Gibco BRL, UK)) at 37° C. Then 500 μl HBSS at 37° C. was added per well, followed by 10 μl of the freshly prepared vesicle solution (prepared in Example 2) to yield a final concentration of 23.3 nmol/ml.
Alternatively, the medium was removed from the cells, and the cells were washed twice with HBSS. 500 μl HBSS/lipid solution at 37° C. was added to each well. The HBSS/lipid solution was prepared by adding 1 μl ethanolic lipid solution (prepared as described above) to 500 μHBSS under vigorous vortexing. The plates were then sealed with parafilm tape and shaken gently at room temperature for 30 min. After incubation, ultrasound was applied at an output energy of 0.5 Watt/cm^2 for 60 sec through the bottom of the plate to the cells. The ultrasound was mediated by an ultrasound gel (Aquasonic 100, Parker, N.J.) between transducer and plate. The ultrasound was applied with an ImaRx Sonoporator 100. Immediately after applying ultrasound one GFP chromosome per seeded cell (2×10^5-5×10^5) (prepared in Example 1) was added. The plate was then sealed again and shaken gently for 1 h at room temperature. After the incubation 1 ml medium (CHO—S—SFM 2 with 10% Fetal Calf Serum, 10000 μg/ml Penicillin and 10000 μg/ml Streptomycin Gibco BRL, Paisley, UK) was added to each well and the cells were incubated for 24 h at 37° C. The cells were then washed with medium and 1 ml medium was added and the cells were incubated at 37° for another 24 h. Detection of expressed genes was then assayed by microscopy or detection of the transferred chromosome by FISH analysis.
The negative control was performed in the same way, but with no chromosomes added to the cells.

LM(tk−) cells [1] = test: ACes transfection at time points after release of nocodazole block, hygromycin selection and FISH; assay type: cell-based, murine; conditions: nocodazole synchronized colonies (20/47), LipofectAMINE PLUS or Superfect; asynchronous control colonies 4% (2/49)
Protocol: Cells were plated at 7.5×10^5 cells per well of a 6-well plate 24 hours prior to nocodazole treatment. The cells were incubated with nocodazole for 6 hours. After the 6 hour incubation, wells were hosed with medium to dislodge the suspension fraction of cells. Nocodazole containing medium was removed and the wells were washed with fresh medium. The wash medium was aspirated and fresh medium was replaced in the wells. To determine the optimum time point for transfection, different cell samples were transfected at different time points after release of the nocodazole block. The time points were 0, 2, 4, 6, 8, 12, and 16 hours after release of the nocodazole block. Following transfer, the cells were plated and transfectants identified using hygromycin selection. Highest colony formations were achieved when transfection occurred 2-4 hours post nocodazole block. At these time points, cell population distribution included approximately 10% of cells in G0/G1, 20% in S, and 70% in G2/M. Transfectants were analyzed using FISH to determine the quality of the transferred material. […]
Cells were synchronized by nocodazole treatment (100 ng/ml final concentration) for 6 hours prior to transfection. […] Twenty-four hours post-transfection the cells are counted (Coulter counter) and a small fraction are plated for a modified toxicity assay. […]

LM(tk−) cells [2] = test: Nocodazole cell synchronization, cell cycle kinetics by propidium iodide flow cytometry; assay type: cell-based, murine
Protocol: To determine the optimum blocking concentration of nocodazole, nocodazole concentrations were titrated against LM(tk−) cells to generate a dose response. Timing of the optimal blocking concentration (100 ng/ml) was then assessed over 0-1 6 hours using flow cytometry. To determine the cell cycle kinetics of LM(tk−) cell populations at different time points, cells were stained with propidium iodide (PI) at a concentration of […] for 1×10^6 cells and analyzed with a FACS Vantage SE (Becton Dickinson Immunocytometry Systems, San Jose, Calif.) equiped with an argon laser tuned to 488 nm at 200 mW. Whole intact cells were gated on forward scatter (FSC, representing cell size) versus side scatter (SSC, representing internal granularity) and PI emission was detected with a 630/22 filter. A list mode file was generated with a minimum of 20,000 whole intact cells analyzed. The proportion of cells in G0-G1, S and G2-M were documented for each time point. Optimum cell-cycle arrest at the G2/M boundary was achieved by incubating cells with 100 ng/ml nocodazole in serum containing DMEM medium for 6 hours. After 6 hours of nocodazole exposure at 100 ng/ml, approximately 20% of cells were in S phase and 50% of cells were at G2/M. Cell cycle kinetics were again monitored by flow cytometry upon release of the nocodazole block and at frequent intervals over a 16 hour period.

LM(tk−) cells [3] = test: Thymidine cell synchronization, cell cycle kinetics by flow cytometry; assay type: cell-based, murine; conditions: 16 hours incubation, dose range 1-20 mM tested
Protocol: To determine the optimum parameters for cell cycle synchronization, thymidine was administered to cell samples in a dose range of 1-20 mM. Samples were analyzed by flow cytometry to determine the cell cycle kinetics of LM(tk−) cell populations at frequent intervals over a 16 hour time period. Optimum synchronization of cells in G0/G1 was achieved by incubating LM(tk−) cells with 10 mM thymidine in serum containing DMEM medium for 16 hours. The thymidine block was released by washing the cells twice in serum-free medium and replacing the medium with complete medium containing 24 μM 2′-deoxycytidine 5′ mono-phosophate (dCMP; Sigma D-7750, St. Louis, Mo.). Cell cycle kinetics were again monitored by flow cytometry upon release of the thymidine block and at frequent intervals over a 16 hour period.

[4] = 2-4 hours post nocodazole block
[5] = after 6 hours of nocodazole exposure at 100 ng/ml

## CCCCCCCCC=CCCCCCCCCC(CCCCCCCCC=CCCCCCCCC)c1cc[n+](C)cc1.[Cl-] (stereo not shown) [Saint-2, 1-methyl-4-(1-octadec-9-enyl-nonadec-10-enylenyl) pyridinium chloride]
A9 cells
  remaining cells positive for green fluorescent protein expression: 50%
Hep-G2 cells
  remaining cells positive for green fluorescent protein expression: 80%
CHO-KI cells; after 48 hours
  GFP positive cells, of original population: 3%
CHO-KI cells; after 48 hours, of the cells remaining on the slide
  remaining cells positive for green fluorescent protein expression: 10%
CHO-KI cells; after culturing for two weeks
  cells containing an intact artificial chromosome (FISH): 1.4%

## COC(=O)Nc1nc2ccc(C(=O)c3cccs3)cc2[nH]1 [nocodazole]
LM(tk−) cells [1]
  percentage of colonies where at least 50% of the cells had an intact ACes (FISH): 43%
LM(tk−) cells [2]; [4]
  cells in G0/G1: approximately 10%
  cells in G2/M: ~70%
  cells in S: ~20%
LM(tk−) cells [2]; 6 hours incubation, serum containing DMEM
  optimal blocking concentration for cell-cycle arrest at the G2/M boundary: 100 ng/mL
LM(tk−) cells [2]; [5]
  cells at G2/M: ~50%
  cells in S phase: approximately 20%

## Cc1cn([C@H]2C[C@H](O)[C@@H](CO)O2)c(=O)[nH]c1=O [thymidine]
LM(tk−) cells [3]
  concentration for optimum synchronization of cells in G0/G1: 10 mM

— patent publication US20030224522A1, “Methods for delivering nucleic acid molecules into cells and assessment thereof” (priority 2002, published 2003)
